Measured values taken from article PMC11969544, “Structure-Based Mechanism and Specificity of Human Galactosyltransferase β3GalT5” (Journal of the American Chemical Society, 2025).

Assays:
[1] = biological target: T1, human β3GalT5 (β1,3-galactosyltransferase 5) (Homo sapiens, UniProt Q9Y2C3); experiment: X-ray crystallography (cocrystallisation); type: binding; settings: Mn2+; donor site; inert donor analogue
T1 construct: gene B3GALT5; recombinant luminal catalytic domain Phe31-Pro308 (crystallised construct), transmembrane domain removed; N-glycosylated
T1 sequence (Q9Y2C3 31-308): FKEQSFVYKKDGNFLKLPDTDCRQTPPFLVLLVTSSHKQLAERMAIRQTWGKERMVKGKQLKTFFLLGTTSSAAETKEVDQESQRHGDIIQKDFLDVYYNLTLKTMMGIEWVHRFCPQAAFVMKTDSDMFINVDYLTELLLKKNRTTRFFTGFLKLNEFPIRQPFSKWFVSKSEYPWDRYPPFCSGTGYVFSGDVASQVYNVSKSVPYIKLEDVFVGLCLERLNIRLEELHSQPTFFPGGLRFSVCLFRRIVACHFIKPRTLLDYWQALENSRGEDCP

[2] = biological target: T1, human β3GalT5 (β1,3-galactosyltransferase 5); experiment: galactosyltransfer kinetics (details in supplement); type: biochemical; settings: acceptor; donor UDP-Gal; crystal structure of the complex also solved
[3] = biological target: T1, human β3GalT5 (β1,3-galactosyltransferase 5); experiment: X-ray crystallography; type: binding; settings: Mn2+; donor site; with Gb5 glycan bound
[4] = substrate: CC(=O)N[C@H]1[C@H](O[C@H]2[C@@H](O)[C@@H](CO)O[C@H](O[C@H](C)[C@H](N)C(=O)O)[C@@H]2NC(C)=O)O[C@H](CO)[C@@H](O)[C@@H]1O; experiment: galactosyltransfer kinetics (details in supplement); type: biochemical, Homo sapiens; settings: acceptor; donor UDP-Gal; crystal structure of the complex also solved
[5] = substrate: COC1O[C@H](CO)[C@H](O)[C@H](O[C@@H]2O[C@H](CO)[C@@H](O)[C@H](O)[C@H]2NC(C)=O)[C@H]1O; experiment: as above; type: biochemical, Homo sapiens; settings: acceptor; donor UDP-Gal; crystal structure of the complex also solved

`O=c1ccn([C@@H]2O[C@H](COP(=O)(O)OP(=O)(O)O[C@H]3O[C@H](CO)[C@H](O)[C@H](O)[C@H]3F)[C@@H](O)[C@H]2O)c(=O)[nH]1` [UDP-2FGal, UDP-2-deoxy-2-fluoro-α-D-galactopyranose] was tested, and the “X-ray crystallography (cocrystallisation)” value [1] was “employed an inert analog of the sugar nucleotide donor, UDP-2-deoxy-2-fluoro-α-D-galactopyranose (UDP-2FGal) for cocrystallization with β3GalT5”.

Molecule `CC(=O)N[C@H]1[C@H](O[C@H]2[C@@H](O)[C@@H](CO)O[C@H](O[C@@H]3[C@H](O)[C@@H](O)[C@H](O[C@H]4[C@H](O)[C@@H](O)C(O)O[C@@H]4CO)O[C@@H]3CO)[C@@H]2O)O[C@H](CO)[C@H](O)[C@@H]1O` (some centres unmarked) [Gb4 glycan] has a Km [2] of 2000 µM.

`O=c1ccn([C@@H]2O[C@H](COP(=O)(O)OP(=O)(O)O)[C@@H](O)[C@H]2O)c(=O)[nH]1` [UDP] was tested, and the X-ray crystallography [3] was “β3GalT5 cocrystallized with UDP and soaked with the product Gb5 (SSEA3) glycan”.

B1: human β3GalT5 (β1,3-galactosyltransferase 5) (Homo sapiens) (protein)
chain: T1 sequence (Q9Y2C3 31-308)
notes: recombinant luminal catalytic domain Phe31-Pro308 (crystallised construct), transmembrane domain removed; N-glycosylated
Molecule B1 has a Km [4] of 750 µM and a Km [5] of 500 µM.
